{
  "source": "PubChem BioAssay AID1117337",
  "about": "(Cheminformatics & Chemogenomics Research Group (CCRG), …, 2015)",
  "note": "pIC50: −log10 of the molar value. Calls of active or inactive are those of the source. How the calls were made is not given here. *1 amine or outer side, *2 acyl side, *3 side chain or, on linkers, in order; H or OH if unused. Where a SMILES comes first, the peptide text is derived from it. Bridges are numbered along the chain shown (N, C = ends). Roman numbers before positions name the chains, in order. [ ]: non-standard residue; d: D form. Actinocin(9to1) = Cc1c2oc3c(C)ccc(C(=O)[*:1])c3nc-2c(C(=O)[*:2])c(N)c1=O; NMeV = CN[C@H](C(=O)O)C(C)C; Sar = CNCC(=O)O",
  "data": [
    {"test_system": "ADSC/ECFC co-culture, VEGF-stimulated, CD31 tube area", "experiment": "inhibition of endothelial tube formation, dose response, imaging, VEGF stimulation, CD31 staining, tube area, IC50 (AID 1117337)", "values": [
      {"smiles": "CC(C)(C)C(=O)OCOP(=O)(COCCn1cnc2c(N)ncnc21)OCOC(=O)C(C)(C)C", "pIC50": 6.41},
      {"smiles": "C[C@@H]1C[C@@H]([C@H](O)CC2CC(=O)NC(=O)C2)C(=O)[C@@H](C)C1", "pIC50": 5.94},
      {"smiles": "[O-][n+]1ccccc1SSc1cccc[n+]1[O-]", "pIC50": 6.14},
      {"smiles": "CCCCCCCC/C=C\\CCCCCCCCN", "IC50": "> 10 µM (inactive)"},
      {"smiles": "O=[N+]([O-])C(Br)(CO)CO", "IC50": "> 10 µM (inactive)"},
      {"smiles": "CC(=O)c1ccc(OCC(=O)N2CCCCC2)cc1", "IC50": "> 10 µM (inactive)"},
      {"smiles": "C=C(C)[C@H]1Cc2c(ccc3c2O[C@@H]2COc4cc(OC)c(OC)cc4[C@@H]2C3=O)O1", "pIC50": 7.59},
      {"smiles": "CN(C)C(=O)Oc1cccc([N+](C)(C)C)c1", "IC50": "> 10 µM (inactive)"},
      {"smiles": "S=C=Nc1ccc(N=C=S)cc1", "IC50": "> 10 µM (inactive)"},
      {"smiles": "CCC(C)n1ncn(-c2ccc(N3CCN(c4ccc(OC[C@H]5CO[C@](Cn6cncn6)(c6ccc(Cl)cc6Cl)O5)cc4)CC3)cc2)c1=O", "note": "(some centres not stated)", "pIC50": 5.81},
      {"smiles": "O=C(NC1CCN(CCc2c[nH]c3ccccc23)CC1)c1ccccc1", "IC50": "> 10 µM (inactive)"},
      {"smiles": "Cc1ccccc1C(=O)Nc1ccc(C(=O)N2CCCC(N(C)C)c3ccccc32)cc1", "note": "(configuration not stated)", "IC50": "> 10 µM (inactive)"},
      {"smiles": "Cn1cc(S(C)=O)c(=O)c2ccc(F)cc21", "note": "(configuration not stated)", "IC50": "> 10 µM (inactive)"},
      {"smiles": "CCCCCCCCCCCC[N+](C)(C)CCOc1ccccc1", "pIC50": 5.47},
      {"smiles": "CC(C)C[C@H](NC(=O)[C@H](CCc1ccccc1)NC(=O)CN1CCOCC1)C(=O)N[C@@H](Cc1ccccc1)C(=O)N[C@@H](CC(C)C)C(=O)[C@@]1(C)CO1", "pIC50": 7.69},
      {"smiles": "Cc1cc(OCCOCC[N+](C)(C)Cc2ccccc2)ccc1C(C)(C)CC(C)(C)C", "IC50": "> 10 µM (inactive)"},
      {"smiles": "O=C(N/N=C/c1ccccc1O)c1ccncc1", "IC50": "> 10 µM (inactive)"},
      {"smiles": "NCCNc1ccc(NCCN)c2c1C(=O)c1ccncc1C2=O", "pIC50": 7.33},
      {"smiles": "COc1cc(NCc2ccc3nc(N)nc(N)c3c2C)cc(OC)c1OC", "pIC50": 5.35},
      {"smiles": "COC(=O)Nc1nc2ccc(C(=O)C3CC3)cc2[nH]1", "pIC50": 5.92},
      {"smiles": "CN(C)CCOC1=Cc2ccccc2Sc2ccc(Cl)cc21", "IC50": "> 10 µM (inactive)"},
      {"smiles": "CC(=O)Oc1ccc(C2(c3ccc(OC(C)=O)cc3)C(=O)Nc3ccccc32)cc1", "IC50": "> 10 µM (inactive)"},
      {"smiles": "CCCCC1C(=O)N(c2ccccc2)N(c2ccc(O)cc2)C1=O", "note": "(configuration not stated)", "pIC50": 5.48},
      {"smiles": "COC(=O)c1nc(Cl)c(Cl)nc1N", "pIC50": 6.06},
      {"smiles": "CC[C@@H]([C@H](C)O)n1ncn(-c2ccc(N3CCN(c4ccc(OC[C@@H]5CO[C@@](Cn6cncn6)(c6ccc(F)cc6F)C5)cc4)CC3)cc2)c1=O", "IC50": "6.46 µM (inactive)"},
      {"smiles": "CCCCC(=O)O[C@H]1CC[C@H]2[C@@H]3CCc4cc(O)ccc4[C@@H]3CC[C@]12C", "IC50": "> 10 µM (inactive)"},
      {"smiles": "CCC1Nc2cc(Cl)c(S(N)(=O)=O)cc2S(=O)(=O)N1", "note": "(configuration not stated)", "IC50": "> 10 µM (inactive)"},
      {"smiles": "CCCCCCCCCCCCCCCCNc1ccc(C(=O)O)cc1", "pIC50": 6.43},
      {"smiles": "C[C@@H](NCCCc1cccc(C(F)(F)F)c1)c1cccc2ccccc12", "IC50": "> 10 µM (inactive)"},
      {"smiles": "CC(C)(CO)[C@@H](O)C(=O)NCCC(=O)NCCSSCCNC(=O)CCNC(=O)[C@H](O)C(C)(C)CO", "IC50": "> 10 µM (inactive)"},
      {"smiles": "COC(=O)Nc1nc2ccc(C(=O)c3cccs3)cc2[nH]1", "pIC50": 6.99},
      {"smiles": "CCCn1cnc2c1c(=O)n(CCCCC(C)=O)c(=O)n2C", "IC50": "> 10 µM (inactive)"},
      {"smiles": "C/C(=N\\O)[C@@H](C)NCC(C)(C)CN[C@H](C)/C(C)=N/O", "IC50": "> 10 µM (inactive)"},
      {"smiles": "COc1ccc(/C=N/NC(=O)c2ccncc2)cc1OC", "IC50": "> 10 µM (inactive)"},
      {"smiles": "Cc1c(N)cccc1C(F)(F)F", "IC50": "> 10 µM (inactive)"},
      {"smiles": "O=C(CCl)c1ccc(Cl)cc1Cl", "pIC50": 5.60},
      {"smiles": "CCCCN1CCCC1C(=O)Nc1c(C)cc(C)cc1C", "note": "(configuration not stated)", "IC50": "> 10 µM (inactive)"},
      {"smiles": "CCN(CC)CCOc1ccc(C(O)(Cc2ccc(Cl)cc2)c2ccc(C)cc2)cc1", "note": "(configuration not stated)", "pIC50": 5.49},
      {"smiles": "CC(=O)NC(=O)c1ccccc1O", "IC50": "> 10 µM (inactive)"},
      {"smiles": "COc1cc(C=C2CCC/C(=C\\c3ccc(O)c(OC)c3)C2=O)ccc1O", "IC50": "> 10 µM (inactive)"},
      {"smiles": "CCCCCCCCOC(=O)c1ccccc1C(=O)OCCCCCCCC", "IC50": "> 10 µM (inactive)"},
      {"smiles": "CN(C)c1ccc(C(=C2C=CC(=[N+](C)C)C=C2)c2ccc(N(C)C)cc2)cc1", "pIC50": 6.73},
      {"smiles": "CCCSc1ccc2nc(NC(=O)OC)[nH]c2c1", "pIC50": 6.45},
      {"smiles": "CC(C)Cn1cnc2c1c(=O)n(C)c(=O)n2C", "IC50": "> 10 µM (inactive)"},
      {"smiles": "COc1cccc2c1C(=O)c1c(O)c3c(c(O)c1C2=O)C[C@@](O)(C(=O)CO)C[C@@H]3O[C@H]1C[C@H](N)[C@H](O[C@@H]2CCCCO2)[C@H](C)O1", "pIC50": 8.20},
      {"smiles": "CC(=O)Nc1ccn(C2COC(COC(=O)c3ccccc3)O2)c(=O)n1", "note": "(configuration not stated)", "pIC50": 5.63},
      {"smiles": "O=S(c1cc(Cl)cc(Cl)c1O)c1cc(Cl)cc(Cl)c1O", "IC50": "> 10 µM (inactive)"},
      {"smiles": "CC(C)(C)c1ccc(C(O)CCCN2CCC(C(O)(c3ccccc3)c3ccccc3)CC2)cc1", "note": "(configuration not stated)", "pIC50": 5.49},
      {"smiles": "COC(=O)Nc1nc2ccc(S(=O)c3ccccc3)cc2[nH]1", "note": "(configuration not stated)", "pIC50": 6.54},
      {"smiles": "NC(=O)C1(N2CCCCC2)CCN(CCCN2c3ccccc3CCc3ccc(Cl)cc32)CC1", "pIC50": 5.47},
      {"smiles": "S=c1nc[nH]c2nc[nH]c12", "pIC50": 6.04},
      {"smiles": "O=C1NCCN1CCN1CCC(c2cn(-c3ccc(F)cc3)c3ccc(Cl)cc23)CC1", "IC50": "> 10 µM (inactive)"},
      {"smiles": "COc1cccc2c1C(=O)c1c(O)c3c(c(O)c1C2=O)C[C@@](O)(C(=O)CO)C[C@@H]3O[C@H]1C[C@H](N)[C@H](O)[C@H](C)O1", "pIC50": 7.37},
      {"smiles": "O=C(Nc1ccc(Oc2ccc(Cl)cc2)c(Cl)c1)c1cc(I)cc(I)c1O", "IC50": "> 10 µM (inactive)"},
      {"smiles": "Nc1nc(=S)c2[nH]cnc2[nH]1", "pIC50": 6.21},
      {"smiles": "Clc1ccc(CO/N=C(\\Cn2ccnc2)c2ccc(Cl)cc2Cl)c(Cl)c1", "IC50": "> 10 µM (inactive)"},
      {"smiles": "Cc1c2oc3c(C)ccc(C(=O)N[C@@H]4C(=O)N[C@H](C(C)C)C(=O)N5CCC[C@H]5C(=O)N(C)CC(=O)N(C)[C@@H](C(C)C)C(=O)O[C@@H]4C)c3nc-2c(C(=O)N[C@@H]2C(=O)N[C@H](C(C)C)C(=O)N3CCC[C@H]3C(=O)N(C)CC(=O)N(C)[C@@H](C(C)C)C(=O)O[C@@H]2C)c(N)c1=O", "note": "(I: T[dV]P[Sar][NMeV] / II: T[dV]P[Sar][NMeV]; ester I:1-I:C, II:1-II:C; linker I:N-II:N via Actinocin(9to1))", "pIC50": 9.00},
      {"smiles": "O=C(OCc1ccccc1)c1cccnc1", "IC50": "> 10 µM (inactive)"},
      {"smiles": "OC[C@@H](O)[C@H](O)[C@H](O)[C@@H](O)CO", "IC50": "> 10 µM (inactive)"},
      {"smiles": "CC[C@]1(O)C[C@H]2CN(CCc3c([nH]c4ccccc34)[C@@](C(=O)OC)(c3cc4c(cc3OC)N(C=O)[C@H]3[C@@](O)(C(=O)OC)[C@H](OC(C)=O)[C@]5(CC)C=CCN6CC[C@]43[C@@H]65)C2)C1", "pIC50": 8.19},
      {"smiles": "Cc1cc(O)c2c(O)c3c(O)cccc3cc2c1", "IC50": "> 10 µM (inactive)"},
      {"smiles": "Cc1cc(O)c2ccccc2c1O", "pIC50": 5.31},
      {"smiles": "Oc1c(Br)cc(Br)c2cccnc12", "IC50": "> 10 µM (inactive)"},
      {"smiles": "O=C1C(=O)c2ccccc2C(O)=C1C1CCC(c2ccc(Cl)cc2)CC1", "note": "(configuration not stated)", "IC50": "5.18 µM (inactive)"},
      {"smiles": "Cc1nc(Nc2ncc(C(=O)Nc3c(C)cccc3Cl)s2)cc(N2CCN(CCO)CC2)n1", "IC50": "> 10 µM (inactive)"},
      {"smiles": "CO[C@@]12[C@H](COC(N)=O)C3=C(C(=O)C(C)=C(N)C3=O)N1C[C@@H]1N[C@@H]12", "pIC50": 6.99},
      {"smiles": "Oc1ccc(O)cc1", "IC50": "> 10 µM (inactive)"}
    ]}
  ]
}
